This is an account of results in PubChem BioAssay (NCI).

Among the test systems are SNB-78 CNS; M19-MEL melanoma; LXFL 529 NSCLC; RXF-631 renal; HOP-18 NSCLC; KM20L2 colon; XF 498 CNS; DMS 273 small cell lung; MDA-N.
Assay in all cases: NCI anticancer screen, dose series, 48 h

Values after ≈ are worked out from the molar mass of the structure shown. Values joined by “and” are separate entries in the source; they are usually repeats but may differ in a detail not shown here. Equal values may be shown once.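 Dose response: 5 concentrations. Exposure: 48 h. Format: 96-well plates. Endpoint: linear interpolation; highest concentration if not reached. GI50: concentration for 50% inhibition of growth. TGI denotes the concentration required for complete inhibition of growth.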 Where only a bound is given, the exact number is not on record here.

For `Nc1nc(=O)n(C2CC(O)C(O)C(CO)O2)cc1F` (centres undefined), the TGI in the experiment on SNB-78 CNS, in the experiment with M19-MEL melanoma, with LXFL 529 NSCLC, in the experiment with RXF-631 renal, with HOP-18 NSCLC and with KM20L2 colon was greater than 100 µM each time. The TGI in the experiment on XF 498 CNS is greater than 100 µM.

Take `O=C(Nc1ccc(Cl)c(Cl)c1)C(=O)Nn1c(=S)[nH]c2ccccc2c1=O`: the TGI with SNB-78 CNS, in the experiment with M19-MEL melanoma, in the experiment with LXFL 529 NSCLC, in the experiment with DMS 273 small cell lung, with HOP-18 NSCLC and in the experiment with KM20L2 colon was greater than 100 µM throughout. The TGI in the experiment with XF 498 CNS is greater than 100 µM.

As to `O=c1oc2c3ccc4ccccc4c3n(CCN3CCOCC3)c2c2ccccc12`, the TGI in the experiment with M19-MEL melanoma, in the experiment on LXFL 529 NSCLC, in the experiment on HOP-18 NSCLC and in the experiment with KM20L2 colon was greater than 100 µM throughout.

Consider `COc1ccc(NC(=O)CC/C(CC(=O)c2ccccc2Cl)=N\Nc2nnc(C)n2N)cc1`, for which the TGI in the experiment with SNB-78 CNS, with M19-MEL melanoma, in the experiment on LXFL 529 NSCLC, in the experiment on RXF-631 renal, with DMS 273 small cell lung and in the experiment on HOP-18 NSCLC was greater than 100 µM each time. In the experiment on KM20L2 colon, this compound returned a TGI greater than 100 µM.

Regarding `COc1ccc2c(c1)CCc1cnn(C3OC(COC(C)=O)C(OC(C)=O)C(OC(C)=O)C3OC(C)=O)c1-2` (centres undefined), the TGI with SNB-78 CNS was greater than 100 µM; with M19-MEL melanoma it was greater than 100 µM; with LXFL 529 NSCLC, 41.4 µM; with RXF-631 renal, greater than 100 µM; with DMS 273 small cell lung, greater than 100 µM; with KM20L2 colon, 51.8 µM. Moreover, the TGI in the experiment on XF 498 CNS is 52.1 µM.

For `COCC1C(=O)c2cc3c(cc2C12C=CC1(C=C2)OCCO1)OCO3` (centres undefined), the TGI in the experiment on M19-MEL melanoma is 14.7 µM; with LXFL 529 NSCLC, 9.82 µM; in the experiment on RXF-631 renal it was 27.7 µM; in the experiment on DMS 273 small cell lung it was 29.9 µM; in the experiment with KM20L2 colon, 22.7 µM; in the experiment on XF 498 CNS it was 17.9 µM.

Compound `CCOC(=O)C1c2[nH]c3ccccc3c2CCN1C(=O)c1ccco1` (centres undefined) yielded a TGI in the experiment on MDA-N greater than 10 µM.

In the case of `CN(C)c1ccc(/C=C/C(=O)c2ccccc2)cc1Br`, the TGI is 37.1 µM in the experiment with M19-MEL melanoma, 28.8 µM with LXFL 529 NSCLC, 57.6 µM in the experiment on KM20L2 colon and 31.2 µM in the experiment with XF 498 CNS.

Consider `COc1ccc(C(=O)/C(=N/Nc2ccccc2)c2ccc(OC)cc2)cc1`, for which the TGI in the experiment on SNB-78 CNS, with M19-MEL melanoma, with LXFL 529 NSCLC, in the experiment on RXF-631 renal, in the experiment with DMS 273 small cell lung and with HOP-18 NSCLC was greater than 100 µM throughout. The TGI was 51.5 µM with KM20L2 colon and greater than 100 µM in the experiment on XF 498 CNS.

`COC(=O)NNc1c([N+](=O)[O-])cnn(-c2ccccc2)c1=O`: the TGI in the experiment on MDA-N amounted to 4.79 µM; with M19-MEL melanoma, 3.43 µM; with LXFL 529 NSCLC it was 3.16 µM; with RXF-631 renal, 3.88 µM; in the experiment on DMS 273 small cell lung, 4 µM; in the experiment on HOP-18 NSCLC, 6.28 µM. Besides, the TGI in the experiment with KM20L2 colon worked out at 7.78 µM.

Regarding `Cc1cc2c(cc1C)N1Cc3c(ccc(C)c3C)N(C2)C1` (tested in a mixture with another compound), the TGI in the experiment on SNB-78 CNS, in the experiment with M19-MEL melanoma, with LXFL 529 NSCLC, in the experiment on DMS 273 small cell lung, in the experiment on HOP-18 NSCLC and in the experiment on KM20L2 colon was greater than 100 µM each time. In the experiment on XF 498 CNS, this compound displayed a TGI greater than 100 µM.

Turning to `O=C1C(c2ccc([N+](=O)[O-])cc2)=[N+]([O-])c2ccccc21`, the TGI in the experiment on SNB-78 CNS was 61.1 µM; in the experiment on M19-MEL melanoma it was 41.5 µM; in the experiment on LXFL 529 NSCLC, greater than 100 µM; in the experiment with HOP-18 NSCLC, 26.5 µM.

Compound `CSC(=S)N/N=C/c1ccccc1` displayed a TGI in the experiment on MDA-N greater than 100 µM.

As to `O=c1cc2n(c(=O)[nH]1)C1OC(C(O)C1O)[C@H]2CCO` (some centres undefined), the TGI in the experiment with SNB-78 CNS, in the experiment with M19-MEL melanoma, with LXFL 529 NSCLC, in the experiment with DMS 273 small cell lung and in the experiment with KM20L2 colon was greater than 100 µM in each case.

Compound `CCOc1cc(C=O)c2c(ccc3ccc(OC)c(OC)c32)c1OC` displayed a TGI in the experiment with MDA-N greater than 100 µM.

For `CC1(C)CC(=O)C2=C(C1)NC(SSC1=C(C#N)C(c3ccc(Br)cc3)C3=C(CC(C)(C)CC3=O)N1)=C(C#N)C2c1ccc(Br)cc1` (centres undefined), in the experiment with MDA-N, the GI50 is 45.9 µg/mL (≈ 59.1 µM); the TGI is > 100 µM and 150 µg/mL.

For the compound `O=c1c2cc(Br)ccc2[nH]c(=S)n1-c1ccc(Br)cc1`, the TGI with SNB-78 CNS, in the experiment on M19-MEL melanoma, with LXFL 529 NSCLC, in the experiment with HOP-18 NSCLC and in the experiment with KM20L2 colon was greater than 100 µM each time.

In the experiment on MDA-N, `O=C(O)CN(CC(=O)O)Cc1cc2c(cc1O)Oc1cc(O)c(CN(CC(=O)O)CC(=O)O)cc1C21OC(=O)c2ccccc21` had a TGI greater than 100 µM.

In the experiment on MDA-N, `O=C(Nc1ccc(Cl)c(Cl)c1)C(=O)C(C1OC(=O)c2ccccc21)[N+](=O)[O-]` (centres undefined) had a TGI greater than 100 µM.

Consider `C[N+](C)(C)CCC(=O)N1C/C(=C\c2ccccc2)C(=O)/C(=C/c2ccccc2)C1`, for which the TGI was 22.9 µM in the experiment on SNB-78 CNS; 3.36 µM in the experiment on MDA-N; 15.5 µM with M19-MEL melanoma; 13.5 µM in the experiment with LXFL 529 NSCLC; 5.33 µM in the experiment on DMS 273 small cell lung; 26.7 µM in the experiment with HOP-18 NSCLC. Further, the figures for the TGI with KM20L2 colon and in the experiment on XF 498 CNS were 22 µM and 27.6 µM, respectively.

In the case of `O=C(CC1(O)C(=O)Nc2c(Cl)cccc21)c1ccccc1` (centres undefined), the TGI in the experiment on SNB-78 CNS, with LXFL 529 NSCLC, in the experiment with DMS 273 small cell lung, in the experiment with HOP-18 NSCLC, in the experiment with KM20L2 colon and in the experiment on XF 498 CNS was greater than 100 µM in each case.
